Reference: patent US20250230193A1, “CYCLIC COMPOUND HAVING SELECTIVE KRAS INHIBITORY EFFECT ON HRAS AND NRAS” (CHUGAI SEIYAKU KABUSHIKI KAISHA, priority 2022, published 2025)
*1 amine or outer side, *2 acyl side, *3 side chain or, on linkers, in order; H or OH if unused. Where a SMILES comes first, the peptide text is derived from it. Bridges are numbered along the chain shown (N, C = ends). [ ]: non-standard residue; d: D form. The star is where a group is joined. hPhe(3-Cl-4-CF3) = N[C@@H](CCc1ccc(C(F)(F)F)c(Cl)c1)C(=O)O; NPrPhe(4-CF3) = CCCN[C@@H](Cc1ccc(C(F)(F)F)cc1)C(=O)O; X12 = COCCN([C@@H](Cc1ccc(C)cc1)C(=O)[*:2])[*:1]; NMeGly(cPent) = CN[C@H](C(=O)O)C1CCCC1; NMeF = CN[C@@H](Cc1ccccc1)C(=O)O; NMeD = CN[C@@H](CC(=O)O)C(=O)O; NMeL = CN[C@@H](CC(C)C)C(=O)O; Morpholide = C1CN(*)CCO1; Ac5c = NC1(C(=O)O)CCCC1; Aze = O=C(O)[C@@H]1CCN1; Sar = CNCC(=O)O

Key:
[1] = target: GDP-bound HRAS wild-type protein (Homo sapiens, UniProt P01112); assay: Binding to HRAS by surface plasmon resonance (SPR), Single Cycle Kinetics; details: SPR; for HRAS/KRAS (ratio of KD value for HRAS to KD value for KRAS): GDP-bound HRAS wild-type vs GDP-bound KRAS wild-type
Chain of GDP-bound HRAS wild-type protein (P01112 whole entry): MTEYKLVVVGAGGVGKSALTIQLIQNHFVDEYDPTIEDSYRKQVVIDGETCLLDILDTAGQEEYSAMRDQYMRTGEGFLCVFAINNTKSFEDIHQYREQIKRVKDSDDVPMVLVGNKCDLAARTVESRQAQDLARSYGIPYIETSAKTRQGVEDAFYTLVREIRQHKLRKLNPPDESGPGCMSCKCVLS

[2] = target: GDP-bound NRAS wild-type protein (Homo sapiens, UniProt P01111); assay: Binding to NRAS by surface plasmon resonance (SPR), Single Cycle Kinetics; details: SPR; for NRAS/KRAS (ratio of KD value for NRAS to KD value for KRAS): GDP-bound NRAS wild-type vs GDP-bound KRAS wild-type
Chain of GDP-bound NRAS wild-type protein (P01111 whole entry): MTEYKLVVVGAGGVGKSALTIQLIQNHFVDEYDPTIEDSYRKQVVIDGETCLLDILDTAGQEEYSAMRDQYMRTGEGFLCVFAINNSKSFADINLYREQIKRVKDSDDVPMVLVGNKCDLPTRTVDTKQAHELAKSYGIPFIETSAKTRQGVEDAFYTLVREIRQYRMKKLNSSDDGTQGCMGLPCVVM

## CC[C@H](C)[C@@H]1NC(=O)[C@H](CC(C)C)N(C)C(=O)C[C@@H](C(=O)N(C)C)N(C)C(=O)[C@H](C2CCCC2)N(C)C(=O)C2(CCC2)NC(=O)[C@@H]2CC(F)(F)CN2C(=O)[C@H](CCc2cc(F)c(C(F)(F)F)c(F)c2)NC(=O)CN(C)C(=O)[C@H](Cc2ccc(C(F)(F)F)cc2)N2CCCC[C@@H](C2=O)N(C)C(=O)CN(C)C1=O [PP0577]
[1]
  HRAS/KRAS (ratio of KD value with respect to GDP-bound HRAS wild-type protein to KD value with respect to KRAS): C (A compound having a KD ratio of 0.1 or more and less than 3 is denoted as C)
[2]
  NRAS/KRAS (ratio of KD value with respect to GDP-bound NRAS wild-type protein to KD value with respect to KRAS): C (A compound having a KD ratio of 0.1 or more and less than 3 is denoted as C)

## CCCN1C(=O)[C@@H]2CCN2C(=O)[C@H](Cc2ccccc2)N(C)C(=O)[C@H]([C@@H](C)CC)NC(=O)[C@H](CC(C)C)N(C)C(=O)C[C@@H](C(=O)N2CCOCC2)N(C)C(=O)[C@H](C2CCCC2)N(C)C(=O)C2(CCCC2)NC(=O)[C@@H]2CCCN2C(=O)[C@H](CCc2ccc(C(F)(F)F)c(Cl)c2)NC(=O)CN(C)C(=O)[C@@H]1Cc1ccc(C(F)(F)F)cc1 [PP0209] ([NMeL]I[NMeF][Aze][NPrPhe(4-CF3)][Sar][hPhe(3-Cl-4-CF3)]P[Ac5c][NMeGly(cPent)][NMeD]-Morpholide; lactam N-11)
[1]
  HRAS/KRAS (ratio of KD for GDP-bound HRAS wild-type to KD for KRAS): C (A compound having a KD ratio of 0.1 or more and less than 3 is denoted as C)
[2]
  NRAS/KRAS (ratio of KD for GDP-bound NRAS wild-type to KD for KRAS): C (A compound having a KD ratio of 0.1 or more and less than 3 is denoted as C)

## CC[C@H](C)[C@@H]1NC(=O)[C@H](CC(C)C)N(C)C(=O)C[C@@H](C(=O)N(C)C)N(C)C(=O)[C@H](C2CCCC2)N(C)C(=O)C2(CCCC2)NC(=O)[C@@H]2CCCN2C(=O)[C@H](CCc2ccc(C(F)(F)F)c(Cl)c2)NC(=O)CN(C)C(=O)[C@H](Cc2ccc(C(F)(F)F)cc2)N2CC=CCOC[C@H](C2=O)N(C)C(=O)CN(C)C1=O [PP0628]
[1]
  HRAS/KRAS (ratio of KD value with respect to GDP-bound HRAS wild-type protein to KD value with respect to KRAS): C (A compound having a KD ratio of 0.1 or more and less than 3 is denoted as C)
[2]
  NRAS/KRAS (ratio of KD value with respect to GDP-bound NRAS wild-type protein to KD value with respect to KRAS): C (A compound having a KD ratio of 0.1 or more and less than 3 is denoted as C)

## CCCN(C)C(=O)[C@@H]1CC(=O)N(C)[C@@H](COCC)C(=O)N[C@@H]([C@@H](C)CC)C(=O)N(C)CC(=O)N(C)[C@H]2C/C=C\CCN(C2=O)[C@@H](Cc2ccc(C(F)(F)F)cc2)C(=O)N(C)CC(=O)N[C@@H](CCc2ccc(C(F)(F)F)c(OC)c2)C(=O)N2C[C@@H](C)C[C@H]2C(=O)NC2(CCC2)C(=O)N(C)[C@@H](C2CCCC2)C(=O)N1C [PP2025]
[1]
  HRAS/KRAS (ratio of KD value for HRAS to KD value for KRAS): B (a compound having 3 or more and less than 10 is denoted as B)
[2]
  NRAS/KRAS (ratio of KD value for NRAS to KD value for KRAS): A (a compound having 10 or more and less than 20 is denoted as A)

## CCO[C@@H]1C[C@H]2C(=O)NC3(CC(C)(C)C3)C(=O)N(C)[C@@H](C3CCCC3)C(=O)N(C)[C@H](C(=O)N(CC)CC)CC(=O)N(C)[C@@H](CC)C(=O)N[C@@H]([C@@H](C)CC)C(=O)N(C)CC(=O)N(C)[C@H]3C/C=C\CCN(C3=O)[C@@H](Cc3ccc(C)cc3)C(=O)N(C)CC(=O)N[C@@H](CCc3ccc(C(F)(F)F)c(OC)c3)C(=O)N2C1 [PP1881]
[1]
  HRAS/KRAS (ratio of KD value for HRAS to KD value for KRAS): A (a compound having 10 or more and less than 20 is denoted as A)
[2]
  NRAS/KRAS (ratio of KD value for NRAS to KD value for KRAS): A (a compound having 10 or more and less than 20 is denoted as A)

## CCO[C@@H]1C[C@H]2C(=O)NC3(CC(C)(C)C3)C(=O)N(C)[C@@H](C3CCCC3)C(=O)N(C)[C@H](C(=O)N(C)CC)CC(=O)N(C)[C@@H](C3CC3)C(=O)N[C@@H]([C@@H](C)CC)C(=O)N(C)CC(=O)N(C)[C@H]3C/C=C\CCN(C3=O)[C@@H](Cc3ccc(C(F)(F)F)cc3)C(=O)N(C)CC(=O)N[C@@H](CCc3ccc(C(F)(F)F)c(OC)c3)C(=O)N2C1 [PP1981]
[1]
  HRAS/KRAS (ratio of KD value for HRAS to KD value for KRAS): A (a compound having 10 or more and less than 20 is denoted as A)
[2]
  NRAS/KRAS (ratio of KD value for NRAS to KD value for KRAS): A (a compound having 10 or more and less than 20 is denoted as A)

## CC[C@H](C)[C@@H]1NC(=O)[C@H](CC(C)C)N(C)C(=O)C[C@@H](C(=O)N2CCOCC2)N(C)C(=O)[C@H](C2CCCC2)N(C)C(=O)C2(CCCC2)NC(=O)[C@@H]2CCCN2C(=O)[C@H](CCc2ccc(C(F)(F)F)c(Cl)c2)NC(=O)CN(C)C(=O)[C@H](Cc2ccc(C)cc2)N(CCOC)C(=O)CN(C)C(=O)CN(C)C1=O [PP0104] ([NMeL]I[Sar][Sar][X12][Sar][hPhe(3-Cl-4-CF3)]P[Ac5c][NMeGly(cPent)][NMeD]-Morpholide; lactam N-11)
[1]
  HRAS/KRAS (ratio of KD for GDP-bound HRAS wild-type to KD for KRAS): C (A compound having a KD ratio of 0.1 or more and less than 3 is denoted as C)
[2]
  NRAS/KRAS (ratio of KD for GDP-bound NRAS wild-type to KD for KRAS): B (a compound having 3 or more and less than 10 is denoted as B)
